Article PMC3127977, “No relevant cardiac, pharmacokinetic or safety interactions between roflumilast and inhaled formoterol in healthy subjects: an open-label, randomised, actively controlled study” (BMC Clinical Pharmacology, 2011)

Assays:
healthy subjects [1] = test: Transthoracic impedance cardiography (ZCG) and systolic time intervals in healthy men; oral roflumilast 500 μg once daily, inhaled formoterol 24 μg twice daily; details: Regimen A
Experimental: For Regimen A, subjects received 500 μg oral roflumilast once daily (daily dose: one tablet of roflumilast 500 μg) from the morning of Day 2 to the morning of Day 18. […] For Regimen B, subjects received 24 μg formoterol for oral inhalation delivered by a DPI device (Foradil® P) twice daily, once in the morning and once in the evening from the morning of Day 2 to the evening of Day 18.
Cardiovascular effects were evaluated non-invasively by means of ECGs (cardiac rhythm, intra-cardiac conduction and ventricular repolarisation), oscillometric blood pressure and transthoracic impedance cardiography (ZCG; systolic time intervals, contractility indices and estimates of stroke volume and cardiac output). Cardiovascular assessments (oscillometric blood pressure, pulse rate, 12-lead ECG, and three-lead ZCG) were recorded before dosing and at 10, 20, 40 and 60 minutes, and at 2, 3, 4, 5, 6, 7 and 8 hours after morning dosing. […] All cardiovascular measurements were carried out after the subjects had been recumbent for at least 10 minutes; they generally stayed in bed from 1 hour before until 8 hours after morning dosing.
Systolic time intervals (STIs) and ZCG estimates of the systolic cardiac pump performance were derived from the simultaneous registration of a one-lead ECG, a phonocardiogram (PCG), and the rate of change of the transthoracic impedance (dZ/dt) to an AC current applied through the thoracic cage (CARDIODYNAGRAPH; Diefenbach GmbH, Wiesbaden, Germany). Tracings were captured and stored digitally during the study and subsequently analysed after the study by displaying the analogue ECG, PCG and ZCG signals on a computer screen. The relevant signal amplitudes and time intervals were delineated manually by operator-steered cursors; measurements were made for at least 10 artefact-free consecutive cardiac cycles. From these tracings, the following variables were derived by direct measurement: RR interval (ms), total electromechanic systole (QS2 [ms]), ventricular ejection time (VET [ms]), baseline transthoracic impedance (Z0 [Ω]), and maximum negative velocity of transthoracic impedance changes during the cardiac cycle (dZ/dtmax [Ω/s]). These variables were analysed for the 10 cycles and their means were used in the calculations of the following variables: heart rate (HR [bpm]), pre-ejection period (PEP [ms] = QS2 - VET), HR-corrected STIs (STIc and STIi according to Weissler et al.), ZCG estimates of stroke volume (SV [mL] according to Kubicek's equation [37] using the equation of Geddes and Sadler for the specific resistance of blood), cardiac output (CO [mL/min]), and total peripheral resistance (TPR [dyn.s.cm^-5]). For the latter variable, the mean blood pressure (MBP [mmHg]) was used as calculated according to Wezler and Böger from the systolic blood pressure (mmHg) and the diastolic blood pressure (mmHg).
ZCG analysis was carried out by a single analyst who was blinded with regard to subject, study regimen, profiling day within regimen, and time during the day.

healthy subjects [2] = test: Digital 12-lead electrocardiography (HR, QT, QTc); format: in vivo, human
Experimental: Digital 12-lead ECGs were recorded immediately after each ZCG recording. Tracings were analysed off-study by regimen-blinded qualified analysts, using previously reported methodology. For each time point, three cycles were measured with regard to the RR, PQ and QT-intervals [ms]. The means of the three measurements were used for the calculation of HR and HR-corrected QTc intervals, according to Bazett's equation (QTcB = QT/RR^1/2) and Fridericia's equation (QTcF = QT/RR^1/3).

[3] = cited from earlier work
[4] = set-up: method as in PMID 20690782; details: cited from earlier work
healthy subjects [5] = system: healthy subjects; set-up: method as in earlier work; details: cited from earlier work
[6] = Serum glucose concentration on profiling days; details: Regimen A, Day 11
Text: (§1) During the main profiling days, blood was sampled at each ZCG time point for the determination of serum glucose and potassium concentrations.

[7] = Serum potassium concentration on profiling days; details: Regimen A, Day 11
Text: as §1

O=C(Nc1c(Cl)cncc1Cl)c1ccc(OC(F)F)c(OCC2CC2)c1 [Roflumilast, 3-cyclopropylmethoxy-N-(3,5-dichloropyridin-4-yl)-4-(difluoromethoxy)benzamide]
CO, Day 1-matched post-dose maximum dmax (δ), median (healthy subjects [1]; Day 11 (R)): 1.6 L/min
CO, Day 1-matched post-dose minimum dmin (δ), median (healthy subjects [1]; Day 11 (R)): -1.7 L/min
CO, untransformed post-dose maximum dmax (U), median (healthy subjects [1]; Day 11 (R)): 10.6 L/min
CO, untransformed post-dose minimum dmin (U), median (healthy subjects [1]; Day 11 (R)): 8.3 L/min
CO, untransformed pre-dose morning value, median (healthy subjects [1]; Day 11 (R)): 9.1 L/min
HR, Day 1-matched post-dose maximum dmax (δ), median (healthy subjects [1]; Day 11 (R)): 9 bpm
HR, Day 1-matched post-dose minimum dmin (δ), median (healthy subjects [1]; Day 11 (R)): -4 bpm
HR, untransformed post-dose maximum dmax (U), median (healthy subjects [1]; Day 11 (R)): 64 bpm
HR, untransformed post-dose minimum dmin (U), median (healthy subjects [1]; Day 11 (R)): 54 bpm
HR, untransformed pre-dose morning value, median (healthy subjects [1]; Day 11 (R)): 63 bpm
PEP, Day 1-matched post-dose maximum dmax (δ), median (healthy subjects [1]; Day 11 (R)): 25 ms
PEP, Day 1-matched post-dose minimum dmin (δ), median (healthy subjects [1]; Day 11 (R)): -27 ms
PEP, untransformed post-dose maximum dmax (U), median (healthy subjects [1]; Day 11 (R)): 121 ms
PEP, untransformed post-dose minimum dmin (U), median (healthy subjects [1]; Day 11 (R)): 86 ms
PEP, untransformed pre-dose morning value, median (healthy subjects [1]; Day 11 (R)): 94 ms
QS2, Day 1-matched post-dose maximum dmax (δ), median (healthy subjects [1]; Day 11 (R)): 19 ms
QS2, Day 1-matched post-dose minimum dmin (δ), median (healthy subjects [1]; Day 11 (R)): -34 ms
QS2, untransformed post-dose maximum dmax (U), median (healthy subjects [1]; Day 11 (R)): 454 ms
QS2, untransformed post-dose minimum dmin (U), median (healthy subjects [1]; Day 11 (R)): 410 ms
QS2, untransformed pre-dose morning value, median (healthy subjects [1]; Day 11 (R)): 423 ms
TPR, Day 1-matched post-dose maximum dmax (δ), median (healthy subjects [1]; Day 11 (R)): 126 dyn.s.cm^-5
TPR, Day 1-matched post-dose minimum dmin (δ), median (healthy subjects [1]; Day 11 (R)): -128 dyn.s.cm^-5
TPR, untransformed post-dose maximum dmax (U), median (healthy subjects [1]; Day 11 (R)): 934 dyn.s.cm^-5
TPR, untransformed post-dose minimum dmin (U), median (healthy subjects [1]; Day 11 (R)): 733 dyn.s.cm^-5
TPR, untransformed pre-dose morning value, median (healthy subjects [1]; Day 11 (R)): 838 dyn.s.cm^-5
dZ/dt, Day 1-matched post-dose maximum dmax (δ), median (healthy subjects [1]; Day 11 (R)): 0.28 Ω/s
dZ/dt, Day 1-matched post-dose minimum dmin (δ), median (healthy subjects [1]; Day 11 (R)): -0.10 Ω/s
dZ/dt, untransformed post-dose maximum dmax (U), median (healthy subjects [1]; Day 11 (R)): 1.93 Ω/s
dZ/dt, untransformed post-dose minimum dmin (U), median (healthy subjects [1]; Day 11 (R)): 1.56 Ω/s
dZ/dt, untransformed pre-dose morning value, median (healthy subjects [1]; Day 11 (R)): 1.67 Ω/s
CO, dmax (U), point estimate (95% CI) of difference between days (healthy subjects [1]; Day 11-Day 1): 0.2 (-1.1 to 1.4) L/min
CO, dmin (U), point estimate (95% CI) of difference between days (healthy subjects [1]; Day 11-Day 1): -0.4 (-1.2 to 0.4) L/min
CO, untransformed pre-dose morning value, point estimate (95% CI) of difference between days (healthy subjects [1]; Day 11-Day 1): -0.6 (-1.7 to 0.5) L/min
HR, dmax (U), point estimate (95% CI) of difference between days (healthy subjects [1]; Day 11-Day 1): 3 (-4 to 6) bpm
HR, dmin (U), point estimate (95% CI) of difference between days (healthy subjects [1]; Day 11-Day 1): 4 (1 to 7) bpm
HR, untransformed pre-dose morning value, point estimate (95% CI) of difference between days (healthy subjects [1]; Day 11-Day 1): 3 (-5 to 8) bpm
PEP, dmax (U), point estimate (95% CI) of difference between days (healthy subjects [1]; Day 11-Day 1): 3 (-7 to 11) ms
PEP, dmin (U), point estimate (95% CI) of difference between days (healthy subjects [1]; Day 11-Day 1): 0 (-9 to 13) ms
PEP, untransformed pre-dose morning value, point estimate (95% CI) of difference between days (healthy subjects [1]; Day 11-Day 1): -3 (-17 to 10) ms
QS2, dmax (U), point estimate (95% CI) of difference between days (healthy subjects [1]; Day 11-Day 1): -1 (-11 to 11) ms
QS2, dmin (U), point estimate (95% CI) of difference between days (healthy subjects [1]; Day 11-Day 1): -9 (-21 to 8) ms
QS2, untransformed pre-dose morning value, point estimate (95% CI) of difference between days (healthy subjects [1]; Day 11-Day 1): -10 (-21 to 2) ms
TPR, dmax (U), point estimate (95% CI) of difference between days (healthy subjects [1]; Day 11-Day 1): 47 (-124 to 178) dyn.s.cm^-5
TPR, dmin (U), point estimate (95% CI) of difference between days (healthy subjects [1]; Day 11-Day 1): -18 (-96 to 43) dyn.s.cm^-5
TPR, untransformed pre-dose morning value, point estimate (95% CI) of difference between days (healthy subjects [1]; Day 11-Day 1): 14 (-98 to 121) dyn.s.cm^-5
dZ/dt, dmax (U), point estimate (95% CI) of difference between days (healthy subjects [1]; Day 11-Day 1): -0.05 (-0.25 to 0.15) Ω/s
dZ/dt, dmin (U), point estimate (95% CI) of difference between days (healthy subjects [1]; Day 11-Day 1): 0.03 (-0.18 to 0.20) Ω/s
dZ/dt, untransformed pre-dose morning value, point estimate (95% CI) of difference between days (healthy subjects [1]; Day 11-Day 1): -0.06 (-0.29 to 0.16) Ω/s
effect on cardiovascular function (ZCG/STI variables) (healthy subjects [1]; roflumilast alone): little effect
HR (ECG) (healthy subjects [2]; 12-lead ECG): slight increase
QTc values, uncorrected or corrected using Bazett's or Fridericia's formula (healthy subjects [2]; 12-lead ECG): no clinically relevant changes
duration of the QT interval (healthy subjects [2]; 12-lead ECG): decrease
QT/QTc intervals (healthy subjects [2]; all subjects, all regimens): below 450 ms
median effective plasma half-life ([3]; repeated dose): 17 h
mean bioavailability ([3]; single oral 500 μg dose, healthy individuals): 79%
dose dependence of pharmacokinetics ([3]; within the 250-1000 μg dose range): dose-proportional
increase in tPDE4i expected in patients with COPD compared with healthy individuals [4]: 12.6%
effect on cardiac repolarisation (QT/QTc interval) (healthy subjects [5]): no significant effect
median pre-dose serum glucose [6]: 4.75 mmol/L
median pre-dose serum potassium level [7]: 4.16 mmol/L
